Measured values taken from patent US20250250308A1, “METHODS AND COMPOSITIONS WITH ANTIFUNGAL ACTIVITY” (priority 2022, published 2025).

B1: EntV: 68 amino acid active C-terminal form of the E. faecalis bacteriocin EntV (SEQ ID NO: 14) (protein, listed as Enterococcus faecalis)
chain: LGSCVANKIKDEFFAMISISAIVKAAQKKAWKELAVTVLRFAKANGLKTNAIIVAGQLALWAVQCGLS

Legend:
C. neoformans = assay: Survival of C. elegans infected with C. neoformans; type: in vivo; details: 1 nM peptide
Experimental: FIGS. 6A-6D: EntV peptides have activity against many fungal species and strains. Survival over time of C. elegans infected with C. auris, (FIG. 6A), C. neoformans, (FIG. 6B), and C. albicans, (FIG. 6C), paired clinical isolates before (AzS: fluconazole-susceptability) and after gaining fluconazole resistance (AzR), (FIG. 6D). Peptides were added at 1 nM and fluconazole at 4 ug/ml. Statistical differences in survival were compared to animals to the DMSO vehicle control by Mantel-Cox log rank analysis. An n of 60 was used and one representative trial is shown. Exact p values from top to bottom: (FIG. 6A) <0.0001, <0.0001, (FIG. 6B) <0.0001, <0.0001, (FIG. 6C) 0.0013, 0.0004, 0.0035, (FIG. 6D) 0.0050, 0.0040, 0.5539.
EntV peptides have activity against other fungal species and strains. […] Paired clinical isolates of C. albicans, in which fluconazole-resistance had been gained following in-patient evolution were tested and it was determined that animals infected with both the original strain as well as the fluconazole-resistant descendent were protected by EntV ([…]).
Killing of C. elegans by C. albicans. […] Plates were incubated at 25° C., and worm death was scored daily. Kaplan-Meier survival curves were generated and analyzed as described in the quantification and statistical analysis section.

human cells = details: cited from earlier work

| Molecule | Survival of C. elegans infected with C. neoformans (C. neoformans) | Toxicity to human cells (human cells) |
| --- | --- | --- |
| VAGQLALWAVQC [12aa] | protected C. neoformans infected worms from death |  |
| B1 |  | no toxicity |
